Values of other authors in publication PMC11070244 (Current Research in Structural Biology, 2024).

Legend:
[1] = biological target: T1, BChE (Homo sapiens, UniProt P06276); conditions: ref Khan et al., 2009
[2] = biological target: T1, BChE; conditions: in vitro experiments; ref Durmaz et al. (2023)
[3] = biological target: AChE (Homo sapiens, UniProt P22303); conditions: in vitro experiments; ref Durmaz et al. (2023)
Sequence of AChE (P22303 32-614): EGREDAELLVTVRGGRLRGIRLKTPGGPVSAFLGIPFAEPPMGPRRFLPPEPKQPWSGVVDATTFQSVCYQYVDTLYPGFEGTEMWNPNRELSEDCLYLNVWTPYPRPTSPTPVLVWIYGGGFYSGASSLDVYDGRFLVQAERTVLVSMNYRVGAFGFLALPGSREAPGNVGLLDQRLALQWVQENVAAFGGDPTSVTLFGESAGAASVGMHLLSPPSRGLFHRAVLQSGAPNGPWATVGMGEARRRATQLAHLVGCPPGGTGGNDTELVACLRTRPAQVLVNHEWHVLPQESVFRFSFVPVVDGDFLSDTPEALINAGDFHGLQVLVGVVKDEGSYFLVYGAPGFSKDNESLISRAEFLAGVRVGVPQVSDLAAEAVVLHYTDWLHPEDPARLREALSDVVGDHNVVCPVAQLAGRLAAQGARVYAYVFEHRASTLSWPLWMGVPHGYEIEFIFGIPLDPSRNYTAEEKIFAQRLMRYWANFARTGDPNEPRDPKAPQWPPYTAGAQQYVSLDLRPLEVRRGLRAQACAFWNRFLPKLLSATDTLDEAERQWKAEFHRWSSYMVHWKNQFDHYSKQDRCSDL

T1 sequence (P06276 29-602, species assumed): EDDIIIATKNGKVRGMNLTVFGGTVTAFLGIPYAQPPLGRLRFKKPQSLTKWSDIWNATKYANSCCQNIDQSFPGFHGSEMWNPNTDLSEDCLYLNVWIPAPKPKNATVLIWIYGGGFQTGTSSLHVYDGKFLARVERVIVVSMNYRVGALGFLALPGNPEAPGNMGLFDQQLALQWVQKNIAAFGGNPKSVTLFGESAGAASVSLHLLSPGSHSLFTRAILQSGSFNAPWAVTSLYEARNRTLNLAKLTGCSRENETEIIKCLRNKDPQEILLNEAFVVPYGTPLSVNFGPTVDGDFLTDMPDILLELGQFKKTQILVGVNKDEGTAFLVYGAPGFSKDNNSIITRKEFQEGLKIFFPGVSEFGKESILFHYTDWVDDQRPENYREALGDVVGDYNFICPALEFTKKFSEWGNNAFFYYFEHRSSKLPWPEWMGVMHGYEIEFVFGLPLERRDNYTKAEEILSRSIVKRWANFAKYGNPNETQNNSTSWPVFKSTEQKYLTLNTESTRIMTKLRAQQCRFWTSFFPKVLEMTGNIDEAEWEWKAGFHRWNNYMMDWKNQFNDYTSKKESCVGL

O=c1c(O)c(-c2ccc(O)c(O)c2)oc2cc(O)cc(O)c12 [quercetin]
Docking score with BChE compared to donepezil [1]: stronger docking score

O=C(O)[C@H]1O[C@@H](Oc2cc3oc(-c4ccccc4)cc(=O)c3c(O)c2O)[C@H](O)[C@@H](O)[C@@H]1O [baicalin]
Inhibition of BChE activity [2]: significantly inhibited
Inhibition of AChE activity [3]: significantly inhibited
